# Earlier results in patent publication US20070213318A1, “C[…] WITH IMPROVED BLOOD-BRAIN BARRIER PE[…] THE TREATMENT OF DISEASES ACCOMPANIED BY COGNITIVE IMPAIRMENT” (priority 2006, published 2007).
# Read-outs that look alike come from different tables or passages of the source.
# Columns and labels:
# human nAChR subtypes = settings: below the concentration range at which AChE inhibition takes place
smiles,measurement,setting,value
COc1ccc2c3c1O[C@H]1C[C@@H](O)C=C[C@@]31CCN(C)C2 [Galanthamine],concentrations at which the APL effect is observed,human nAChR subtypes,submicromolar concentrations
same,tissue to plasma ratio (T/P),female rat spleen,~20
same,tissue to plasma ratio (T/P),"male and female rat, kidney",10-15
same,tissue to plasma ratio (T/P),"male and female rat, salivary and adrenal gland",7-14
same,tissue to plasma ratio (T/P),"rat, lung, liver, heart, skeletal muscle and testes",2-4
